In ChEMBL document CHEMBL5308504, “Tm Shift (DSF) assay results for EUbOPEN Chemogenomics Library” (2023):
“And” between values parts separate entries of the source, which are not always exact repeats. Equal entries are not always repeated. Numbered stars: 1 amine (or outer) side, 2 acyl side, 3 side chain; on linkers, the order of the positions; unused ones are H or OH. Bridge positions count the residues as written; N and C are the ends. Square brackets hold non-standard residues; d marks the D form. Peptide text beside a SMILES is read from it. I, II: the chains in the order shown. Hexamethylenediamine = C(CCCN[*:2])CCN[*:1]; Dip = N[C@H](C(=O)O)C(c1ccccc1)c1ccccc1; Chg = N[C@H](C(=O)O)C1CCCCC1; NMeA = CN[C@@H](C)C(=O)O

Key:
Peregrin (Homo sapiens) = target: T1, Peregrin (Homo sapiens) (UniProt P55201); conditions: Compound concentration 20.0 uM, Protein concentration 2.0 uM, Result type QC Liability
T1 sequence (whole entry): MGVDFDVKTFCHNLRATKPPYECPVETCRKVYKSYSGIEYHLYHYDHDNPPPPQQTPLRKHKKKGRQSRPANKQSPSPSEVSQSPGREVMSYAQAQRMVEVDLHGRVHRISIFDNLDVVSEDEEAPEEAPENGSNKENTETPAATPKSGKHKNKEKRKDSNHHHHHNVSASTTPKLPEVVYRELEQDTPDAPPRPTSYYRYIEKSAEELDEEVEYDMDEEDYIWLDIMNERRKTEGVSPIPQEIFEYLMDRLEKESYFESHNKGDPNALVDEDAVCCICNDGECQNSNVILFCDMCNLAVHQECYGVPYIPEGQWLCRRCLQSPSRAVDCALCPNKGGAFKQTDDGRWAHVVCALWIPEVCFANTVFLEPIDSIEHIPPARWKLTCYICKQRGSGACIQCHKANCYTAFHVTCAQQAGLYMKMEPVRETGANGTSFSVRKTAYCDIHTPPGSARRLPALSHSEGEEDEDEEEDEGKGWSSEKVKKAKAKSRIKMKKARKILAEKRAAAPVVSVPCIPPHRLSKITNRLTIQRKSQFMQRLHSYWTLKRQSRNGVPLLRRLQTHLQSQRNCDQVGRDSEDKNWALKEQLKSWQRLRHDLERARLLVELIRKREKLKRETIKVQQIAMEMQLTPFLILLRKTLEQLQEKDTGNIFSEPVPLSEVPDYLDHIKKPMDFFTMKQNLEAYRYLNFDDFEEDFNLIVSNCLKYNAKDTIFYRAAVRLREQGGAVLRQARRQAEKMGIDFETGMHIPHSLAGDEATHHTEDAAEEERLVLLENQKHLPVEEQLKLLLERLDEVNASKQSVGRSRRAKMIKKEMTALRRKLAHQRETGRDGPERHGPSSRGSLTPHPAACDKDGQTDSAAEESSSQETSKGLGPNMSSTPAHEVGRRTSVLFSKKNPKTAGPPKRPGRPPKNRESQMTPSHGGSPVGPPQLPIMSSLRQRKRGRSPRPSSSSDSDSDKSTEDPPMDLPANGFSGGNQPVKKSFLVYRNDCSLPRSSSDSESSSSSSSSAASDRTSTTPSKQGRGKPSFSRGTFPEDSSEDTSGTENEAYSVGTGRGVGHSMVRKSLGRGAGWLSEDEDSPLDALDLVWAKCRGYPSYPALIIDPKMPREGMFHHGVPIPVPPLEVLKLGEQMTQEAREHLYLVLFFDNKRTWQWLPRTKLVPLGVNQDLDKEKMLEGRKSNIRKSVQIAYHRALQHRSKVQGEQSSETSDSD

[1] = target: Fibroblast growth factor receptor 3 (Homo sapiens) (UniProt P22607); conditions: Compound concentration 20.0 uM, Protein concentration 2.0 uM, Result type QC Liability
Sequence of Fibroblast growth factor receptor 3 (Homo sapiens) (P22607 23-806 limits assumed): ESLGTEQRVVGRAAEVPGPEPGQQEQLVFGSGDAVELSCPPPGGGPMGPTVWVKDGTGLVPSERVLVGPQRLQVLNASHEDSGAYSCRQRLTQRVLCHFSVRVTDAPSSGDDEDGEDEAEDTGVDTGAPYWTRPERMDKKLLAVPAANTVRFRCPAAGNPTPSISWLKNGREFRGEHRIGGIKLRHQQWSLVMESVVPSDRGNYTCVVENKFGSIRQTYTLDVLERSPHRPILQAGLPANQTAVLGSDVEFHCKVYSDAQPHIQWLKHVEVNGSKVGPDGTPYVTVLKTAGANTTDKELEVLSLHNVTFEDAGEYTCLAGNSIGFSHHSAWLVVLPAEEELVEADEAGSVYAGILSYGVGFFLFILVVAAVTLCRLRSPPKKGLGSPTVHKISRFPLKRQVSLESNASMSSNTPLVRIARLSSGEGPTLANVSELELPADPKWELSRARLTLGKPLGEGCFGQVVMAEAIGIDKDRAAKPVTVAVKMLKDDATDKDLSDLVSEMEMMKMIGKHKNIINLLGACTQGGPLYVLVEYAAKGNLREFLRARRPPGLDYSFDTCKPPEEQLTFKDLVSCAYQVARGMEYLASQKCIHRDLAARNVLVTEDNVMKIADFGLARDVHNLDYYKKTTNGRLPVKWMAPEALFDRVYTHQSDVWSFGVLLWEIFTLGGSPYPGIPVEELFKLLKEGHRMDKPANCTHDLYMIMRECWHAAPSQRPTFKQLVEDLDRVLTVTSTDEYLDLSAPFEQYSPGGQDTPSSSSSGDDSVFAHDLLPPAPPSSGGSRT
Description: Thermal Shift Assay. Domain: start/stop: P449-E759

| SMILES | ΔTm (Peregrin (Homo sapiens)) | ΔTm [1] |
| --- | --- | --- |
| CN[C@@H](C)C(=O)N[C@H](C(=O)N1CCC[C@H]1C(=O)N[C@H](C(=O)NCCCCCCNC(=O)[C@@H](NC(=O)[C@@H]1CCCN1C(=O)[C@@H](NC(=O)[C@H](C)NC)C1CCCCC1)C(c1ccccc1)c1ccccc1)C(c1ccccc1)c1ccccc1)C1CCCCC1 (I: H-[NMeA][Chg]P[Dip] / II: H-[NMeA][Chg]P[Dip]; linker I:C-II:C via Hexamethylenediamine) | -2.83 °C | 0.66 °C |
| Nc1ncnc2c1c(COc1cccc(Cl)c1)nn2C1CCOCC1 | -1.86 °C | 1.63 °C |
| N=C(N)Nc1cc(C2CCNCC2)cc(C(F)(F)F)c1 | -2.37 °C | 0.42 °C |
| COc1ncc(-c2cc(-c3ncc(CN4C[C@@H](C)O[C@@H](C)C4)o3)c3cn[nH]c3c2)cc1NS(C)(=O)=O | -0.2 °C | 1.45 °C |
| COc1nc2ccc([C@@](O)(c3ccc(Cl)cc3)c3cncn3C)cc2c(Cl)c1Cc1ccc(-n2cccn2)cc1 | -1.33 °C | -1.77 °C |
| N=C(N)NCCC[C@H](NC(=O)C(c1ccccc1)c1ccccc1)C(=O)NCc1ccc(CNC(N)=O)cc1 | -1.9 °C | 0.81 °C |
| Cc1cc2c(-c3ccco3)cnc(N[C@@H]3CCN(C)C[C@H]3C(=O)NC3CCCCC3)c2[nH]c1=O | -0.68 °C | 0.65 °C |
| CN[C@@H](C)C(=O)N[C@H](C(=O)N1CCC[C@H]1C(=O)Nc1sc(-c2ncco2)nc1-c1ccccc1)C1CCCCC1 | -1.67 °C | 0.43 °C |
| CNc1oc(-c2cccc3ccccc23)nc1C#N | -2.17 °C | 0.61 °C |
| O=C1CN(c2ccccc2F)C(NCCN2CCOCC2)=C1c1nc2cc(Br)ccc2c(=O)[nH]1 | -2.29 °C | 0.53 °C |
| CN(C(=O)CCOCCOCCOCCOCCNc1cccc2c1C(=O)N(C1CCC(=O)NC1=O)C2=O)[C@H]1CC[C@@]2(C)[C@@H](CC[C@@H]3[C@@H]2CC[C@]2(C)[C@@H](c4ccc5ccncc5c4)CC[C@@H]32)C1 (some centres not stated) | 3.76 °C | 1.42 °C |
| Cn1c(C2(NC(=O)c3ccc4c(C5CCCC5)c(-c5ncc(Br)cn5)n(C)c4c3)CCC2)nc2ccc(/C=C/C(=O)O)cc21 | -4.81 °C and -4.1 °C | -0.02 °C and -0.48 °C |
| CN(C)C(=O)Cn1cc(-c2nc(C3(c4ccc(-c5cnc(N)nc5)cc4)CC3)no2)cn1 | -2.76 °C | 0.55 °C |
| O=C(O)c1ccc(CN2C[C@@H]3C[C@H]2CN3Cc2ccc(Oc3ccc(-c4ncco4)cc3)cc2)cc1 | -2.16 °C | 0.44 °C |
| C=CC(=O)N1CCC[C@@H](n2nc(-c3ccc(Oc4ccccc4)cc3)c3c(N)ncnc32)C1 | -1.17 °C | -1.1 °C |
| CCN1C(=O)N(c2c(F)c(OC)cc(OC)c2F)Cc2cnc3[nH]c(CN4CCOCC4)cc3c21 | -0.68 °C | 11.8 °C |
| CCC(=O)N[C@H]1CC[C@@H](C(=O)N(C)c2ccc(-c3nc4ccccc4o3)cc2)C1 | -2.71 °C | 0.8 °C |
| Cc1cn([C@@H](C)CC#N)c(=O)c2cc(Cn3nc(C(F)F)cc3Cl)nn12 | -1.08 °C | 0.93 °C |
| CC[C@H]1[C@@H](O)[C@@H]2[C@H](CC[C@]3(C)[C@@H]([C@H](C)CCC(=O)O)CC[C@@H]23)[C@@]2(C)CC[C@@H](O)C[C@@H]12 | -1.33 °C | 0 °C |

| SMILES | ΔTm (Peregrin (Homo sapiens)) | ΔTm [1] |
| --- | --- | --- |
| CCc1ccc(N(CC(C)C)S(=O)(=O)c2ccc(OCC3CCOCC3)c(CO)c2)cc1 | -0.2 °C | 0.5 °C |
| CNC(=O)COc1cc2cc(Nc3nc(N4CCC(C(=O)N(C)C)CC4)ncc3Cl)cc(OC)c2n(C)c1=O | -2.49 °C | 0.39 °C |
| Cn1cc(C(=O)O)c2ccc(N3CCC(OCc4c(-c5c(Cl)cccc5Cl)noc4C4CC4)CC3)cc21 | -1.9 °C | 0.91 °C |
| COc1cc(OC)cc(-c2cc3cnc(N)nc3nc2NC(=O)NC(C)(C)C)c1 | -0.52 °C and -0.82 °C | 5.05 °C and 9.51 °C |
| COc1ccccc1Nc1nc(-c2nn(Cc3c(F)cc(OCCCO)cc3F)c3ccccc23)ncc1OC | -1.09 °C | 0.41 °C |
| CC(=O)O[C@H]1C(=O)[C@@]2(C)[C@H]([C@H](OC(=O)c3ccccc3)[C@]3(O)C[C@H](OC(=O)[C@H](O)[C@@H](NC(=O)c4ccccc4)c4ccccc4)C(C)=C1C3(C)C)[C@]1(OC(C)=O)CO[C@@H]1C[C@@H]2O | -2.68 °C | 0.44 °C |
| CC(C)C(=O)N[C@@H]1CCN(C(=O)Nc2nc3c(s2)-c2nc(-c4ccccc4Cl)ncc2CC3)C1 | -1.39 °C | 3.87 °C |
| Cn1cncc1-c1cn(-c2cccc(C(=O)Nc3cccc(C(F)(F)F)c3)c2)nn1 | -1.49 °C | -9.32 °C |
| Cc1c(N2CCCC2)nc2ccc(Br)cc2c1C(=O)NC[C@H](CCC(=O)O)c1ccccc1Cl | -3.23 °C and -0.94 °C | 0.24 °C and 1.08 °C |
| COc1ccc(N(C(=O)Nc2c(C)cccc2C)c2cc(Nc3ccc(N4CCN(C)CC4)cc3)ncn2)c(OC)c1 | -3.64 °C | 8.93 °C |
| Cc1ncsc1-c1ccc(CNC(=O)[C@@H]2C[C@@H](O)CN2C(=O)[C@@H](NC(=O)C2(F)CC2)C(C)(C)C)c(OCCOc2ccc(CN3CCN(c4cc(-c5ccccc5O)nnc4N)CC3)cc2)c1 | 5.55 °C | -0.75 °C |
| CCC(F)(F)c1cc(N2CCC(S(C)(=O)=O)CC2)nc2sc(C(N)=O)c(N)c12 | -2.52 °C and -1.37 °C and -0.65 °C | 0.83 °C and 0.75 °C and 1.17 °C |
| C[C@@H]1COCCN1c1cc(=O)n2c(n1)N(Cc1cncc(Cl)c1)[C@H](C(F)(F)F)CC2 | -3.92 °C | 0.57 °C |
| CN1CCN(C(=O)Cc2ccc(N/C(=C3\C(=O)Nc4cc(Cl)ccc43)c3ccccc3)cc2)CC1 | -2.46 °C | 5.68 °C |
| CCN(CC)C/C=C/C(=O)Nc1cc2c(Nc3ccc(F)c(Cl)c3)ncnc2cc1OCC1CC1 | -0.42 °C | 1.12 °C |
| C=CC(=O)Nc1cccc(C)c1Nc1ncc2cc(-c3c(Cl)c(OC)cc(OC)c3Cl)ccc2n1 | -0.73 °C | 1.71 °C |
| O=C(O)CCC/C=C\C[C@@H]1[C@@H](/C=C/[C@@H](O)COc2cccc(C(F)(F)F)c2)[C@H](O)C[C@@H]1O | -2.28 °C | 0.51 °C |
| C[C@@H](Oc1cc(-n2cnc3ccc(OC4CCN(C)CC4)cc32)sc1C(N)=O)c1ccccc1Cl | 0.36 °C | 3.37 °C |
| C[C@@H]1C[C@H](C)CN(c2ncc(Cl)c(Nc3ccc4c(c3)cc(OC(C)(C)C(=O)O)c(=O)n4C)n2)C1 | -3.96 °C | 0.41 °C |

| SMILES | ΔTm (Peregrin (Homo sapiens)) | ΔTm [1] |
| --- | --- | --- |
| C/C(=C\C(=O)Nc1ccccc1C(=O)O)c1ccc2ccccc2c1 | -1.56 °C | 1.14 °C |
| COc1cc2nc([C@@H]3CCCS(=O)(=O)C3)n(C)c2cc1NC(=O)c1cccc(C(C)(F)F)n1 | -2.41 °C | 0.66 °C |
| Fc1cccc(-n2cnc3c(NCc4nc5c(F)c(F)ccc5[nH]4)nc(N4CCOCC4)nc32)c1 | -0.08 °C | -0.16 °C |
| CN1Cc2nccc(-c3cn(C)nc3-c3ccc(F)cc3)c2C1=O | -1.84 °C | 0.27 °C |
| CC(C)(C)c1cnc(CSc2cnc(NC(=O)C3CCNCC3)s2)o1 | -1.47 °C | 0.5 °C |
| CO[C@H](C)CN1CC[C@]2(C)c3cccc(O)c3C[C@H]1C2(C)C | -1.37 °C | 0.41 °C |
| CC(C)(O)[C@H]1CC[C@H](Nc2ccc3ncc(-c4cccc(C(F)(F)F)c4)n3n2)CC1 | 3.48 °C | 0.8 °C |
| O=C1Nc2ccc(C(=O)c3ccco3)cc2C1=Cc1cc(Cl)c(O)c(Cl)c1 | 0.59 °C | 2.35 °C |
| Clc1ccccc1C(c1ccccc1)(c1ccccc1)n1ccnc1 | -5.05 °C | 0.47 °C |
| COc1cc2ncnc(Nc3ccc(F)c(Cl)c3)c2cc1OCCN(C)C[C@H](C)O | -1.85 °C | 1.03 °C |
| N#Cc1cccc(-c2c[nH]c3ncnc(N4CCOCC4)c23)c1 | -1.1 °C | 2.14 °C |
| COCCOCn1c(S(C)(=O)=O)nc2c1c(=O)n(C)c(=O)n2C | -2.72 °C | 0.45 °C |
| Cc1cc(C)nc(Nc2ncc(C(=O)NCCc3c(C)[nH]c4ccccc34)cn2)c1 | -2.14 °C | 0.85 °C |
| COc1ccc(-n2nc(C(F)(F)F)cc2-c2ccc(Cl)cc2)cc1 | -3.19 °C | 0.81 °C |
| CC(C)Nc1ncnc2cc(OCc3cccc([S@@](C)(=N)=O)c3)c(Br)cc12 | -2.23 °C | 1.64 °C |
| O=C(Nc1ccc(-n2nc(-c3cccnc3)cc2C(F)(F)F)cn1)c1ccc(-c2ccccc2)c(F)c1 | -2.22 °C | 0.42 °C |
| FC(F)c1cncc(-c2ccc3ncc4nnc(C5=CCCOCC5)n4c3c2)c1 | -2.16 °C | 0.51 °C |
| Cc1[nH]nc(C(F)(F)F)c1Cc1sc2c(c1C(=O)N1C[C@](C)(O)CO1)c(=O)n(C)c(=O)n2C(C)C | -1.85 °C | 0.52 °C |
